{
  "source": "patent US20040115739A1",
  "about": "“Method for identifying maxi-k channel blockers for use in lowering elevated intraocular pressure using hek-293 cells” (priority 2003, published 2004)",
  "format_in_all_cases": "cell-based",
  "key": {"[1]": {"target": "T1, maxi-K channels transiently expressed in TsA-201 cells (Homo sapiens, UniProt Q12791)", "T1 construct": "expressed in transfected cells; host or cells: TsA-201 cells, transient transfection", "assay": "VIPR/FRET membrane potential assay, maxi-K channels transiently expressed in TsA-201 cells", "details": "FIG. 2", "source_text": "In order to discover novel maxi-K channel blockers, a robust and reliable functional assay is required. High throughput screening assays with ion channels have been developed (see Aurora Biosciences J. E. Gonzalez et al., DDT, 4, 431-439, 1999). For example, transient transfection of maxi-K channel alpha and beta1 subunits into TsA-201 cells leads to the maxi-K channel controlling the membrane potential of those cells, under appropriate experimental conditions. However, transient transfection experiments are limited because, typically, the transfection has to occur for every experiment, the cells are only available for assay twice a week and results can be variable depending on the transfection efficiency. This invention relates to a new functional assay, which utilizes HEK-293 cells, which once transfected remains as such, thereby eliminating the need for further transfection. The claimed method also provides more reliable reading of the maxi-K channel activity."}, "[2]": {"target": "T2, maxi-K channel (alpha and beta 1 subunits) in stably transfected HEK-293 cells (Homo sapiens, UniProt Q12791)", "T2 construct": "expressed in transfected cells", "assay": "VIPR/FRET membrane potential assay, HEK-293 cells stably transfected with alpha and beta 1 subunits of the maxi-K channel", "protocol": "Transfection of the alpha and betal subunits of the maxi-K channel in HEK-293 cells was carried out as follows: HEK-293 cells were plated in 100 mm tissue culture treated dishes at a density of 3×10^6 cells per dish, and a total of five dishes were prepared. Cells were grown in a medium consisting of Dulbecco's Modified Eagle Medium (DMEM) supplemented with 10% Fetal Bovine serum, 1× L-Glutamine, and 1× Penicillin/Streptomycin, at 37° C., 10% CO2. For transfection with Maxi-K hα (pCIneo) and Maxi-K hβ1 (pIRESpuro) DNAs, 150 μl FuGENE6™ was added dropwise into 10 ml of serum free/phenol-red free DMEM and allowed to incubate at room temperature for 5 minutes. Then, the FuGENE6™ solution was added dropwise to a DNA solution containing 25 μg of each plasmid DNA, and incubated at room temperature for 30 minutes. After the incubation period, 2 ml of the FuGENE6™/DNA solution was added dropwise to each plate of cells and the cells were allowed to grow two days under the same conditions as described above. At the end of the second day, cells were put under selection media which consisted of DMEM supplemented with both 600 μg/ml G418 and 0.75 μg/ml puromycin. Cells were grown until separate colonies were formed. Five colonies were collected and transferred to a 6 well tissue culture treated dish. A total of 75 colonies were collected. Cells were allowed to grow until a confluent monolayer was obtained. Cells were then tested for the presence of maxi-K channel alpha and beta1 subunits using an assay that monitors binding of ^125I-iberiotoxin-D19Y/Y36F to the channel. Cells expressing ^125I-iberiotoxin-D19Y/Y36F binding activity were then evaluated in a functional assay that monitors the capability of maxi-K channels to control the membrane potential of transfected HEK-293 cells using fluorescence resonance energy transfer (FRET) ABS technology with a VIPR instrument. The colony giving the largest signal to noise ratio was subjected to limiting dilution. For this, cells were resuspended at approximately 5 cells/ml, and 200 μl were plated in individual wells in a 96 well tissue culture treated plate, to add ca. one cell per well. A total of two 96 well plates were made. When a confluent monolayer was formed, the cells were transferred to 6 well tissue culture treated plates. A total of 62 wells were transferred. When a confluent monolayer was obtained, cells were tested using the FRET-functional assay. […]\nThe plates are loaded into a voltage/ion probe reader (VIPR) instrument, and the fluorescence emission of both CC2DMPE and DiSBAC2(3) are recorded for 10 sec. At this point, 100 μl of high-potassium solution (mM): 140 KCl, 2 CaCl2, 1 MgCl2, 20 Hepes-KOH, pH 7.4, 10 glucose are added and the fluorescence emission of both dyes recorded for an additional 10 sec. […]"}, "[3]": {"tested_on": "endogenous potassium conductances of HEK-293 cells", "assay": "VIPR/FRET membrane potential assay, high-potassium addition to HEK-293 cells", "details": "FIG. 1; for effect on fluorescence signal caused by high-potassium addition: untransfected HEK-293 cells, different/increasing concentrations of compound; for efficacy (inhibition of fluorescence signal) in the presence of Compound 1: HEK-293 cells, selective maxi-K channel blocker Compound 1 present", "protocol": "HEK-293 cells were plated on 96-well poly-D-lysine plates and incubated for about 16 to 24 hours at 37° C. The media was aspirated and the cells were washed once with D-PBS. Cells were incubated with 9 μM coumarin (CC2DMPE)-0.02% pluronic-127 in D-PBS for 30 minutes in the dark. Cells were washed twice with D-PBS, and incubated with 4.5 μM oxanol (DiSBAC2(3)) in the absence (Control) or presence of increasing concentrations of test compound, in the dark for 30 minutes. Plates were loaded onto a VIPR instrument and the fluorescence emission of both dyes was recorded for 10 seconds. A solution containing high-potassium was then added and the fluorescence emission of the dyes was recorded for another 10 seconds. The coumarin/oxanol ratio was calculated under both conditions. Before addition of high-potassium, this ratio was always normalized to 1.\nThe signal is not affected by the presence of different concentrations of the selective maxi-K channel blocker, Compound 1. […] A useful concentration range for these agents is 3-10 μM. Importantly, in the presence of the selective maxi-K channel blocker Compound 1, the efficacy of either Compound A or Compound B is unaffected."}},
  "data": [
    {"compound": "CC(=O)SCC(Cc1ccccc1)C(=O)NC(Cc1ccccc1)C(=O)NCCc1ccccc1", "note": "(stereo not drawn) [Compound 1]", "values": [
      {"measurement": "inhibition of control signal", "setting": "[1]; 3 μM compound", "result": "completely inhibits the control signal"},
      {"measurement": "inhibition of control signal with increasing concentrations", "setting": "[2]; 3 μM Compound A present in all wells, FIG. 4", "result": "concentration-dependent inhibition of the control signal"},
      {"measurement": "block of signal generated by addition of high-potassium solution", "setting": "[2]; compound alone, no blocker of endogenous conductances, FIG. 3", "result": "only partially blocks the signal"},
      {"measurement": "inhibition of signal generated by addition of high-potassium solution", "setting": "[2]; in the presence of potassium channel blocker Compound A, FIG. 3", "result": "complete inhibition of the signal"},
      {"measurement": "effect on fluorescence signal caused by high-potassium addition", "setting": "[3]", "result": "not affected"}
    ]},
    {"compound": "CCCNC(=O)OC1CCC(CNC(=O)c2ccccc2OC)(c2ccccc2)CC1", "note": "(stereo not drawn) [Compound A]", "values": [
      {"measurement": "effect on maxi-K channel activity", "setting": "[1]", "result": "neither Compound A, nor Compound B have any effect on maxi-K channel activity"},
      {"measurement": "effect on the magnitude of the signal caused by addition of high-potassium solution", "setting": "[2]; stably transfected HEK-293 cells, FIG. 3", "result": "no significant effect"},
      {"measurement": "efficacy (inhibition of fluorescence signal) in the presence of Compound 1", "setting": "[3]", "result": "unaffected"},
      {"measurement": "effect on fluorescence signal caused by high-potassium addition", "setting": "[3]", "result": "concentration-dependent inhibition of the fluorescence signal"}
    ]},
    {"compound": "COc1ccccc1C(=O)NCC1(c2ccccc2)CCC(=O)CC1", "note": "[Compound B]", "values": [
      {"measurement": "effect on maxi-K channel activity", "setting": "[1]", "result": "neither Compound A, nor Compound B have any effect on maxi-K channel activity"},
      {"measurement": "efficacy (inhibition of fluorescence signal) in the presence of Compound 1", "setting": "[3]", "result": "unaffected"},
      {"measurement": "effect on fluorescence signal caused by high-potassium addition", "setting": "[3]", "result": "concentration-dependent inhibition of the fluorescence signal"}
    ]}
  ]
}
